Among the data in patent US20180148418A1, “AMIDO-SUBSTITUTED CYCLOHEXANE DERIVATIVES” (Bayer Pharma Aktiengesellschaft, priority 2015, published 2018) are IC50 values, retold here.

Assay [1] has as its system HEK293 cells cotransfected with the FOP control vector. As to the kind of experiment: HEK293 FOP assay (control reporter with non-functional TCF elements). The following applies: 16 hours. The format is cell-based. The essentials: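 Stable HEK293 line carrying FOP control reporter (randomized non-functional TCF sites, with pcDNA3), Geneticin-selected, plated 24 h before assay. Stimulated with recombinant human Wnt-3a (2500-5 ng/ml) and compounds 50 μM–15 nM (3.16-fold steps) in CAFTY buffer pH 7.4 with 2 mM Ca2+, 0.01% BSA, run parallel to TOP line.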

In the next assay the target is T1, TNKS1 (Homo sapiens, UniProt O95271).
T1 construct: purchased BPS Bioscience, San Diego, USA 80579 (TNKS1 Histone Ribosylation Assay Kit)
T1 sequence (O95271 1-1327): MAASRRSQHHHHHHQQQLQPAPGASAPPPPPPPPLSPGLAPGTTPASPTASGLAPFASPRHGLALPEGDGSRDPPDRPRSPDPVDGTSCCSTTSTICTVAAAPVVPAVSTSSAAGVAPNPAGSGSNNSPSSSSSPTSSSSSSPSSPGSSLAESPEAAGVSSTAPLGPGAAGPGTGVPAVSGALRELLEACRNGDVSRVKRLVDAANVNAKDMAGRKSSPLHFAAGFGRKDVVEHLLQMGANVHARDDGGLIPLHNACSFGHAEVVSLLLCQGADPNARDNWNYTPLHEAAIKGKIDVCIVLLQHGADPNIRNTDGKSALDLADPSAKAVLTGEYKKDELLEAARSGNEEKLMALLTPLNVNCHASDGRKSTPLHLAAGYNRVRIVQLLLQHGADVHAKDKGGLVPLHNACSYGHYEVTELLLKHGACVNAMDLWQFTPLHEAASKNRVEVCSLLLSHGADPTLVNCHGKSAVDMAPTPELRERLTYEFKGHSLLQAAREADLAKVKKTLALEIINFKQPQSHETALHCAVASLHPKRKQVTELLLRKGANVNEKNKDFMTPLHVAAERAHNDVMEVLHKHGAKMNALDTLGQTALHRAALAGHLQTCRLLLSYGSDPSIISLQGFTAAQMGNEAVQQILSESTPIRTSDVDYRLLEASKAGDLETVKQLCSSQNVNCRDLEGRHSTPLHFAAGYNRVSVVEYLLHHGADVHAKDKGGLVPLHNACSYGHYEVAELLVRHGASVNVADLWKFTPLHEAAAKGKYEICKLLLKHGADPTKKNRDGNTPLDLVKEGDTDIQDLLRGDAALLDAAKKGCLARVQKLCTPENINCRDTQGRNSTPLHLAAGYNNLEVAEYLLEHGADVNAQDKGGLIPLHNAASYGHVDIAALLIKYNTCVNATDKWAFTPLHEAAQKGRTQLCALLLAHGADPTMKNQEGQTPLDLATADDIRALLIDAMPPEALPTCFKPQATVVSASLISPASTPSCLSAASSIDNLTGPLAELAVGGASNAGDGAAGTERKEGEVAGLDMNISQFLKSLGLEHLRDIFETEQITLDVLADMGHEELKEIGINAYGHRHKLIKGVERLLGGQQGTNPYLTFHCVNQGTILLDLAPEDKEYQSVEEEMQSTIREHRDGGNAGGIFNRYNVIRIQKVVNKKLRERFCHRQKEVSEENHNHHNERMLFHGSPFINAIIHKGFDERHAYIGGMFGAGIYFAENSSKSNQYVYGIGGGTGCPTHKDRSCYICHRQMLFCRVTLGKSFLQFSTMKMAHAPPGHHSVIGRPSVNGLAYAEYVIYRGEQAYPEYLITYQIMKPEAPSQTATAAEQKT
As to the kind of experiment: TNKS1 Assay B (auto-parsylation, [3H]-NAD+ SPA). It counts as biochemical. Conditions: 6 nM TNKS1, auto-parsylation, over night at room temperature. The procedure: The potency of selected compounds according to the invention was assessed applying a modified in vitro inhibition assay. Here, the TNKS1 catalyzed NAD^+-dependent ribosylation of the enzyme itself (auto-parsylation) was detected using [^3H]-NAD^+ as substrate and applying the scintillation proximity assay (SPA) method to detect tritium-labeled, parsylated TNKS1. The intensity of the readout signal is proportional to the incorporated [^3H]-NAD^+. Inhibition of TNKS1 leads to a decreased incorporation of [^3H]-NAD^+ and consequently to a lower readout signal intensity. The concentration of a test compound which inhibits the enzyme activity by 50% (corresponds to half of the normed readout signal intensity) is reported as IC50.
Protocol Auto-Parsylation Assay
The assay was conducted in a 96 well MTP format with the identical TNKS1 enzyme sample and NAD^+ sample as in the histone ribosylation assay with the following modifications: TNKS1 enzyme sample was diluted with a modified assay buffer (50 mM MES pH 7.0, 1 mM DTT, 0.01% Triton X-100) to a final concentration of 6 nM TNKS1 and 10×NAD^+ solution was diluted with the modified assay buffer (s. above) to a final 0.445×NAD^+ solution doped with 100 Bq/μl [^3H]-NAD^+[Catalog #NET443H050UC, Perkin Elmer, Waltham, Mass., USA]. Substrate solution (10 μl) was incubated with different test compound concentrations (2.5 ul in 10% DMSO in modified assay buffer) or control (2.5 ul 10% DMSO in modified assay buffer only) and enzyme (10 μl) over night at room temperature. Incorporated tritium was measured after addition of 50 μl SPA beads (1 mg/ml) [Catalog #RPNQ0095 20 mg/ml, Perkin Elmer, Waltham, Mass., USA; diluted 1:10 with Dulbecco's phosphate buffered saline, PBS Catalog #D8537, Sigma-Aldrich, Steinheim, Germany] and detection of the photon emission with a beta count plate reader [Wallac MicroBeta®, Perkin Elmer, Waltham, Mass., USA].

For the molecule `CC(C)NC(=O)c1nc[nH]c1C(=O)N[C@H]1CC[C@@]2(CCN(c3ccc(F)cc3Cl)C2=O)CC1` [Example 162, N^5-[(trans)-2-(2-chloro-4-fluorophenyl)-1-oxo-2-azaspiro[4.5]dec-8-yl]-N^4-isopropyl-1H-imidazole-4,5-dicarboxamide], the IC50 (usually the concentration that gives 50% inhibition) was 40000 nM in assay [1] (Homo sapiens) and 13 nM against TNKS1.
For `O=C(N[C@H]1CC[C@H](C(=O)Nc2ccc(F)cc2Cl)CC1)c1cnn2ccc(N3CCCC3)nc12` [Example 108], in that order: no less than 50000 nM and 52 nM.
In the same order, the values of `CNC(=O)c1[nH]cnc1C(=O)NC12CCC(C(=O)Nc3ccc(F)cc3Cl)(CC1)CC2` [Example 115, N^4-{4-[(2-chloro-4-fluorophenyl)carbamoyl]bicyclo[2.2.2]oct-1-yl}-N^5-methyl-1H-imidazole-4,5-dicarboxamide] are no less than 50000 nM and 160 nM.
Turning to `CC(O)CNc1ccc2ncc(C(=O)N[C@H]3CC[C@H](C(=O)Nc4ccc(F)cc4Cl)CC3)n2n1` (stereo partly drawn) [Example 114, N-{trans-4-[(2-chloro-4-fluorophenyl)carbamoyl]cyclohexyl}-6-[(2-hydroxypropyl)amino]imidazo[1,2-b]pyridazine-3-carboxamide], the IC50 in assay [1] (Homo sapiens) was no less than 50000 nM; at TNKS1 it was 860 nM.
For `O=C(N[C@H]1CC[C@H](C(=O)Nc2cc(F)c(F)cc2Cl)CC1)c1cnn2cccnc12` [Example 130, N-{trans-4-[(2-chloro-4,5-difluorophenyl)carbamoyl]cyclohexyl}pyrazolo[1,5-a]pyrimidine-3-carboxamide], in that order: no less than 50000 nM and 34 nM.
For `O=C(NCCC1CC1)c1nc[nH]c1C(=O)N[C@H]1CC[C@H](C(=O)Nc2cc(N3CCOCC3)ccc2Cl)CC1` [Example 93, N^5-(trans-4-{[2-chloro-5-(morpholin-4-yl)phenyl]carbamoyl}cyclohexyl)-N^4-(2-cyclopropylethyl)-1H-imidazole-4,5-dicarboxamide], the IC50 was 12000 nM in assay [1] (Homo sapiens) and 790 nM against TNKS1.
As to `Cc1c(C(C)N(C)C)cnc2c(C(=O)N[C@H]3CC[C@H](C(=O)Nc4ccc(F)cc4Cl)CC3)cnn12` (single isomer, unassigned) [Example 56, N-{trans-4-[(2-chloro-4-fluorophenyl)carbamoyl]cyclohexyl}-6-[1-(dimethylamino)ethyl]-7-methylpyrazolo[1,5-a]pyrimidine-3-carboxamide], the IC50 is no less than 50000 nM in assay [1] (Homo sapiens) and 840 nM against TNKS1.
As for `O=C(NC12CCC(C(=O)Nc3ccc(F)cc3Cl)(CC1)CC2)c1cnc2cccnn12` [Example 121, N-{4-[(2-chloro-4-fluorophenyl)carbamoyl]bicyclo[2.2.2]oct-1-yl}imidazo[1,2-b]pyridazine-3-carboxamide], the 50% inhibitory concentration (IC50) is no less than 50000 nM in assay [1] (Homo sapiens) and 400 nM against TNKS1.
For `O=C(NC12CCC(C(=O)Nc3c(F)cc(F)cc3Cl)(CC1)CC2)c1cnn2cccnc12` [Example 119, N-{4-[(2-chloro-4,6-difluorophenyl)carbamoyl]bicyclo[2.2.2]oct-1-yl}pyrazolo[1,5-a]pyrimidine-3-carboxamide], in that order: no less than 50000 nM and 560 nM.
Regarding `COC(C)(C)CNC(=O)c1nc[nH]c1C(=O)N[C@H]1CC[C@H](C(=O)Nc2cc(C(F)(F)F)ccc2Cl)CC1` [Example 144, N^5-(trans-4-{[2-chloro-5-(trifluoromethyl)phenyl]carbamoyl}cyclohexyl)-N^4-(2-methoxy-2-methylpropyl)-1H-imidazole-4,5-dicarboxamide], the figures for the IC50 (in assay [1] (Homo sapiens); against TNKS1) were 25000 nM and 190 nM, respectively.
For `CNC(=O)c1nc[nH]c1C(=O)N[C@H]1CC[C@H](C(=O)Nc2ccc(C)cc2Cl)CC1` [Example 9, N^5-{trans-4-[(2-chloro-4-methylphenyl)carbamoyl]cyclohexyl}-N^4-methyl-1H-imidazole-4,5-dicarboxamide], in that order: no less than 50000 nM and 85 nM.
In the same order, the values of `CCNC(=O)c1[nH]cnc1C(=O)N[C@H]1CC[C@@]2(CCN(c3ccc(F)cc3Cl)C2=O)CC1` [Example 141, N^4-[(trans)-2-(2-chloro-4-fluorophenyl)-1-oxo-2-azaspiro[4.5]dec-8-yl]-N^5-ethyl-1H-imidazole-4,5-dicarboxamide] are no less than 50000 nM and 11 nM.
For the molecule `O=C(NCCN1CCCCC1)c1nc[nH]c1C(=O)N[C@H]1CC[C@@]2(CCN(c3ccc(F)cc3Cl)C2=O)CC1` [Example 161, N^5-[(trans)-2-(2-chloro-4-fluorophenyl)-1-oxo-2-azaspiro[4.5]dec-8-yl]-N^4-[2-(piperidin-1-yl)ethyl]-1H-imidazole-4,5-dicarboxamide], the IC50 in assay [1] (Homo sapiens) is no less than 50000 nM; against TNKS1 it was 4.1 nM.
Take `CNC(=O)c1[nH]cnc1C(=O)NC1CCC(C(=O)Nc2ccc(F)cc2Cl)CC1OC` (stereo not drawn) [Example 37, N^4-{(1α,2β,4β)-4-[(2-chloro-4-fluorophenyl)carbamoyl]-2-methoxycyclohexyl}-N^5-methyl-1H-imidazole-4,5-dicarboxamide]: the IC50 was no less than 50000 nM in assay [1] and greater than 10000 nM on TNKS1.
Turning to `CNC(=O)c1nc[nH]c1C(=O)N[C@H]1CC[C@H](C(=O)N(CCO)c2ccc(F)cc2Cl)CC1` [Example 157, N^5-{trans-4-[(2-chloro-4-fluorophenyl)(2-hydroxyethyl)carbamoyl]cyclohexyl}-N^4-methyl-1H-imidazole-4,5-dicarboxamide], the IC50 is no less than 50000 nM in assay [1] (Homo sapiens) and 450 nM at TNKS1.
For `COCC(C)NC(=O)c1nc[nH]c1C(=O)N[C@H]1CC[C@H](C(=O)Nc2cc(C(F)(F)F)ccc2Cl)CC1` (stereo partly drawn) [Example 143, N^5-(trans-4-{[2-chloro-5-(trifluoromethyl)phenyl]carbamoyl}cyclohexyl)-N^4-(1-methoxypropan-2-yl)-1H-imidazole-4,5-dicarboxamide], in that order: 33000 nM and 210 nM.
Turning to `Cc1cnc2c(C(=O)N[C@H]3CC[C@H](C(=O)Nc4ccncc4Cl)CC3)cnn2c1` [Example 104, N-{trans-4-[(3-chloropyridin-4-yl)carbamoyl]cyclohexyl}-6-methyl pyrazolo[1,5-a]pyrimidine-3-carboxamide], the figures for the concentration for half-maximal inhibition (IC50) (in assay [1] (Homo sapiens); on TNKS1) were no less than 50000 nM and 63 nM, respectively.
